Measurements reported in patent US8546428B2 (priority 2006, dated 2013).

How the values were obtained:
[1] = in vivo, po
[2] = hygroscopicity of the salt; format: physicochemical

With COc1nc2ccc(Br)cc2cc1[C@@H](c1ccccc1)[C@@](O)(CCN(C)C)c1cccc2ccccc12.O=C(O)/C=C/C(=O)O [Present fumarate salt, (alpha S, beta R)-6-bromo-alpha-[2-(dimethylamino)ethyl]-2-methoxy-alpha-1-naphthalenyl-beta-phenyl-3-quinolineethanol (2E)-2-butenedioate (1:1)] the “bioavailability, fed subjects compared to fasted subjects” value [1] was “higher bioavailability” and the hygroscopicity [2] was “non-hygroscopic”.
